Laboratory results from ChEMBL document CHEMBL3044660, “Synthesis of 2-amino-6-oxocyclohexenylsulfonamides and their activity against Botrytis cinerea” (Pest Manag Sci, 2011).
Values after ≈ are worked out from the molar mass of the structure shown.

Tests used:
[1] = tested on: Botrytis cinerea; experiment: Fungicidal activity against Botryotinia fuckeliana in 2 hr compound pretreated cucumber seedling assessed as inhibition of spot diameter squared as control efficiency at 200 ug/ml measured after 72 hr; assay type: functional; set-up: scale not given: the % may be the effect or the level left
[2] = tested on: Botrytis cinerea; experiment: Fungicidal activity against Botryotinia fuckeliana assessed as germ-tube elongation inhibition at 50 ug/ml measured after 24 hr; assay type: functional
[3] = tested on: Botrytis cinerea; experiment: Fungicidal activity against Botryotinia fuckeliana assessed as inhibition of mycelial growth measured after 72 hr; assay type: functional, organism-based
[4] = tested on: Botrytis cinerea; experiment: Fungicidal activity against Botryotinia fuckeliana assessed as inhibition of spore germination measured after 24 hr; assay type: functional, organism-based

SMILES: CCCNC1=C(S(=O)(=O)NCCC)C(=O)CC(C)(C)C1
- Activity [1]: 66.59%
- inhibition at 50 µg/mL [2]: 51.2%
- EC50 [3]: 149 µg/mL (≈ 494 µM)
- EC50 [4]: 0.23 µg/mL (≈ 0.76 µM)
- EC80 [4]: 15.6 µg/mL (≈ 51.7 µM)

SMILES: O=C1CCCC(Nc2ccccc2Cl)=C1S(=O)(=O)Nc1ccccc1Cl
- Activity [1]: 74.81%
- inhibition at 50 µg/mL [2]: 81.9%
- EC50 [3]: 10.6 µg/mL (≈ 25.7 µM)
- EC50 [4]: 0.37 µg/mL (≈ 0.9 µM)
- EC80 [4]: 60.9 µg/mL (≈ 148 µM)

SMILES: O=C1CCCC(Nc2ccc(Cl)cc2)=C1S(=O)(=O)Nc1ccc(Cl)cc1
- Activity [1]: 53.57%
- inhibition at 50 µg/mL [2]: 61.3%
- EC50 [3]: 125 µg/mL (≈ 305 µM)
- EC50 [4]: 0.26 µg/mL (≈ 0.632 µM)
- EC80 [4]: > 200 µg/mL

SMILES: Cc1ccc(NC2=C(S(=O)(=O)Nc3ccc(C)cc3)C(=O)CCC2)cc1
- Activity [1]: 57.48%
- inhibition at 50 µg/mL [2]: 20.5%
- EC50 [3]: 47.4 µg/mL (≈ 128 µM)
- EC50 [4]: 0.54 µg/mL (≈ 1.46 µM)
- EC80 [4]: 117 µg/mL (≈ 315 µM)

SMILES: CC1(C)CC(=O)C(S(=O)(=O)Nc2ccccc2Cl)=C(Nc2ccccc2Cl)C1
- Activity [1]: 73.39%
- inhibition at 50 µg/mL [2]: 85.7%
- EC50 [3]: 21.2 µg/mL (≈ 48.2 µM)
- EC50 [4]: 0.34 µg/mL (≈ 0.774 µM)
- EC80 [4]: 4.53 µg/mL (≈ 10.3 µM)

SMILES: CC1(C)CC(=O)C(S(=O)(=O)Nc2cccc(Cl)c2)=C(Nc2cccc(Cl)c2)C1
- Activity [1]: 58.51%
- inhibition at 50 µg/mL [2]: 58.6%
- EC50 [3]: 32.7 µg/mL (≈ 74.4 µM)
- EC50 [4]: 3.03 µg/mL (≈ 6.9 µM)
- EC80 [4]: 128 µg/mL (≈ 290 µM)

SMILES: CC1(C)CC(=O)C(S(=O)(=O)Nc2ccc(Cl)cc2)=C(Nc2ccc(Cl)cc2)C1
- Activity [1]: 65.89%
- inhibition at 50 µg/mL [2]: 78.6%
- EC50 [3]: 128 µg/mL (≈ 290 µM)
- EC50 [4]: 0.54 µg/mL (≈ 1.23 µM)
- EC80 [4]: 7.04 µg/mL (≈ 16 µM)

SMILES: CC1(C)CC(=O)C(S(=O)(=O)Nc2ccc(Cl)c(Cl)c2)=C(Nc2ccc(Cl)c(Cl)c2)C1
- Activity [1]: 69.77%
- inhibition at 50 µg/mL [2]: 64.3%
- EC50 [3]: 67.7 µg/mL (≈ 133 µM)
- EC50 [4]: 2.66 µg/mL (≈ 5.23 µM)
- EC80 [4]: 12.3 µg/mL (≈ 24.2 µM)

SMILES: CC1(C)CC(=O)C(S(=O)(=O)Nc2ccc(Br)cc2)=C(Nc2ccc(Br)cc2)C1
- Activity [1]: 45.09%
- inhibition at 50 µg/mL [2]: 67.9%
- EC50 [3]: 39.1 µg/mL (≈ 74.1 µM)
- EC50 [4]: 1.44 µg/mL (≈ 2.73 µM)
- EC80 [4]: 7.39 µg/mL (≈ 14 µM)

SMILES: CC1(C)CC(=O)C(S(=O)(=O)Nc2ccccc2)=C(Nc2ccccc2)C1
- Activity [1]: 61.17%
- inhibition at 50 µg/mL [2]: 21.4%
- EC50 [3]: 147 µg/mL (≈ 398 µM)
- EC50 [4]: 96.6 µg/mL (≈ 261 µM)
- EC80 [4]: > 200 µg/mL

SMILES: CC1(C)CC(=O)C(S(=O)(=O)NCc2ccccc2)=C(NCc2ccccc2)C1
- Activity [1]: 42.16%
- inhibition at 50 µg/mL [2]: 28.6%
- EC50 [3]: 26.4 µg/mL (≈ 66.2 µM)
- EC50 [4]: 73.4 µg/mL (≈ 184 µM)
- EC80 [4]: 139 µg/mL (≈ 349 µM)

SMILES: Cc1ccccc1NC1=C(S(=O)(=O)Nc2ccccc2C)C(=O)CC(C)(C)C1
- Activity [1]: 64.43%
- inhibition at 50 µg/mL [2]: 57.2%
- EC50 [3]: 8.05 µg/mL (≈ 20.2 µM)
- EC50 [4]: 19.5 µg/mL (≈ 49 µM)
- EC80 [4]: 140 µg/mL (≈ 352 µM)

SMILES: Cc1ccc(NC2=C(S(=O)(=O)Nc3ccc(C)cc3)C(=O)CC(C)(C)C2)cc1
- Activity [1]: 58.6%
- inhibition at 50 µg/mL [2]: 57.2%
- EC50 [3]: 22.8 µg/mL (≈ 57.2 µM)
- EC50 [4]: 3.29 µg/mL (≈ 8.26 µM)
- EC80 [4]: 72.1 µg/mL (≈ 181 µM)

SMILES: Cc1cc(F)ccc1NC1=C(S(=O)(=O)Nc2ccc(F)cc2C)C(=O)CC(C)(C)C1
- Activity [1]: 73.46%
- inhibition at 50 µg/mL [2]: 42.9%
- EC50 [3]: 45.7 µg/mL (≈ 105 µM)
- EC50 [4]: 1.59 µg/mL (≈ 3.66 µM)
- EC80 [4]: > 200 µg/mL

SMILES: CC1(C)CC(=O)C(S(=O)(=O)Nc2ccc(Cl)cc2C(F)(F)F)=C(Nc2ccc(Cl)cc2C(F)(F)F)C1
- Activity [1]: 47.92%
- inhibition at 50 µg/mL [2]: 51.1%
- EC50 [3]: 154 µg/mL (≈ 268 µM)
- EC50 [4]: 6.14 µg/mL (≈ 10.7 µM)
- EC80 [4]: > 200 µg/mL

SMILES: CC1(C)CC(=O)C(S(=O)(=O)Nc2cccc(C(F)(F)F)c2)=C(Nc2cccc(C(F)(F)F)c2)C1
- Activity [1]: 67.74%
- inhibition at 50 µg/mL [2]: 30.6%
- EC50 [3]: 156 µg/mL (≈ 308 µM)
- EC50 [4]: 0.16 µg/mL (≈ 0.316 µM)
- EC80 [4]: 14.2 µg/mL (≈ 27.9 µM)

SMILES: CC1(C)CC(=O)C(S(=O)(=O)Nc2cc(C(F)(F)F)cc(C(F)(F)F)c2)=C(Nc2cc(C(F)(F)F)cc(C(F)(F)F)c2)C1
- Activity [1]: 75.29%
- inhibition at 50 µg/mL [2]: 61.5%
- EC50 [3]: 92.2 µg/mL (≈ 144 µM)
- EC50 [4]: 0.51 µg/mL (≈ 0.794 µM)
- EC80 [4]: 34.8 µg/mL (≈ 54.2 µM)

SMILES: CC1(C)CC(=O)C(S(=O)(=O)NC2CCCCC2)=C(NC2CCCCC2)C1
- Activity [1]: 82.21%
- inhibition at 50 µg/mL [2]: 61.5%
- EC50 [3]: 63.7 µg/mL (≈ 167 µM)
- EC50 [4]: 0.64 µg/mL (≈ 1.67 µM)
- EC80 [4]: 15.4 µg/mL (≈ 40.3 µM)

SMILES: CC12CC1(C)C(=O)N(c1cc(Cl)cc(Cl)c1)C2=O (stereo not given) [PROCYMIDONE]
- Activity [1]: 80.39%
- inhibition at 50 µg/mL [2]: 100%
- EC50 [3]: 0.63 µg/mL (≈ 2.22 µM)
- EC50 [4]: 0.98 µg/mL (≈ 3.45 µM)
- EC80 [4]: 3.18 µg/mL (≈ 11.2 µM)
